Drawing on patent US10639303B2, “Alkaloids and their preparation and application as anti-HSV-1 agents” (OCEAN UNIVERSITY OF CHINA, priority 2015, dated 2020), this text covers IC50 and CC50 for three compounds.

Each structure is given as a SMILES string. Read-outs that look alike come from different tables or passages of the source.

The subject of one data set is HSV-1. The data set can be described thus: cytopathic effects (CPE) assay, antiviral activity against HSV-1 in Hep-2 cells. The data set is classed as cell-based, Herpes Simplex Virus 1. Particulars: Human alphaherpesvirus 1; HSV-1-infected Hep-2 cells, neutral red OD 540 nm, Reed-Muench; read-out: IC50 (anti-HSV-1 activity). As to the method:
The antiviral activities against HSV-1 were evaluated by a cytopathic effects (CPE) assay. Hep-2 monolayer cells were cultured with trypsin enzyme-digesting technique and transferred to 96-well plates. The HSV-1 virus was seeded in Hep-2 cells in 96-well plates, with 2% RPMI-1640 medium, and incubated at 37° C., 5% CO2. After more than 90% lesions, the virus-infected cells were repeatedly frozen and thawed 3 times, centrifuged, quantitative packed and stored at −80° C. Each tested compound was dissolved in 10 μl DMSO to make a homogeneous solution and the solution was diluted 10 times by half-and-half dilution with 2% RPMI-1640 medium. The gradient solution was added to the infected cells incubated in 96-well plates, Ribavirin was used as positive control. Normal cells were used as blank control. Infected cells were used as negative control. All samples were incubated at 37° C., 5% CO2. Pathological changes were observed once every hour, for 24 h. After 90% lesions in negative control, 1% neutral red was added after removal of liquid in 96-well plates. The OD value was determined at 540 nm. IC50 values of tested compounds were calculated by Reed-Muench methods.

Data set [1] is described as follows: cytotoxicity (TC50) accompanying the CPE assay. The data set is classed as cell-based. Conditions: human.

Take `C=C(C)[C@@H]1CC[C@](C)(/C=C/c2ccc3c(c2O)[C@@](O)(c2ccccc2)[C@H](OC)C(=O)N3)O1`: the IC50 in the data set with HSV-1 was 0.07 µM. The CC50 at 24 h in data set [1] was 64.9 µM.

Consider `CO[C@@H]1C(=O)Nc2ccc(/C=C/[C@]3(C)CC[C@H](O)[C@@H](C)C3)c(O)c2[C@@]1(O)c1ccccc1`, for which the half-inhibitory concentration (IC50) with HSV-1 was 0.21 µM. This compound yielded a CC50 at 24 h in data set [1] of 36.9 µM.

Regarding `NC(=O)c1ncn([C@@H]2O[C@H](CO)[C@@H](O)[C@H]2O)n1` [Ribavirin, reference compound], the IC50 in the data set on HSV-1 was determined as 78 µM. Besides, the CC50 at 24 h in data set [1] (Hep-2 cells, read-out: TC50) is over 10000 µM.
